Assay results: patent US8106214B2, “2-imino-4-(thio) oxo-5-polycyclovinylazolines for use as PI3 kinase inhibitors” (Merck Serono SA, priority 2003, dated 2012)
Where two headings read alike, the source gives them in different places.

Tests used:
[1] = tested on: C5a-mediated AKT phosphorylation in Raw 264-7 macrophages; assay: Cell based ELISA: Akt/PKB phosphorylation in macrophages after C5a stimulation; conditions: Mus musculus, RAW264.7, 5 min; compound at 10 μM; Raw 264-7 macrophages stimulated with 50 nM C5a for 5 minutes; read-out: percentage of inhibition of C5a-mediated AKT phosphorylation
Experimental: b) Cell Based ELISA to Monitor PI3K Inhibition:
Measurement of Akt/PKB phosphorylation in macrophages after stimulation with human recombinant Complement 5a (C5a) from Sigma (C5788): Raw 264: Raw 264-7 macrophages (cultured in DMEM-F12 medium containing 10% Fetal Calf serum and antibiotics) are plated at 20,000 cells/well in a 96 MTP 24 h before cell stimulation. Previous to the stimulation with 50 nM of Complement 5a during 5 minutes, Cells are serum starved for 2 h, and pre-treated with inhibitors for 20 minutes. After stimulation cells are fixed in 4% formaldehyde for 20 minutes and washed 3 times in PBS containing 1% Triton X-100 (PBS/Triton). Endogenous peroxidase is blocked by a 20 minutes incubation in 0.6% H2O2 and 0.1% Sodium Azide in PBS/Triton and washed 3 times in PBS/Triton. Cells are then blocked by 60 minutes incubation with 10% foetal calf serum in PBS/Triton. Next, phosphorylated AKWPKB is detected by an overnight incubation at 4° C. with first antibody (anti phospho Serine 473 Akt IHC, Cell Signalling) diluted 800-fold in PBS/Triton, containing 5% bovine serum albumin (BSA). […] The reaction is stopped by addition of 50 μl of 1 M SO4H2 and absorbance is read at 450 nm. […]

[2] = target: Human recombinant GST-PI3Kγ (Homo sapiens, UniProt P48736); assay: High Throughput PI3K Lipid Kinase Assay (SPA, neomycin-coated beads); assay type: biochemical
Experimental: a) High Throughput PI3K Lipid Kinase Assay (Binding Assay):
The assay combines the scintillation proximity assay technology (SPA, Amersham) with the capacity of neomycin (a polycationic antibiotic) to bind phospholipids with high affinity and specificity. The Scintillation Proximity Assay is based on the properties of weakly emitting isotopes (such as ^3H, ^125I, ^33P). Coating SPA beads with neomycin allows the detection of phosphorylated lipid substrates after incubation with recombinant PI3K and radioactive ATP in the same well, by capturing the radioactive phospholipids to the SPA beads through their specific binding to neomycin.
To a 384 wells MTP containing 5 μl of the test compound of Formula (D) (solubilized in 6% DMSO; to yield a concentration of 100, 30, 10, 3, 1, 0.3, 0.1, 0.03, 0.01, 0.001 μM of the test compound), the following assay components are added. 1) 5 μl (58 ng) of Human recombinant GST-PI3Kγ (in Hepes 40 mM, pH 7.4, DTT 1 mM and ethylenglycol 5%) 2) 10 μl of lipid micelles and 3) 10 μl of Kinase buffer ([^33P]γ-ATP 45 μM/60 nCi, MgCl2 30 mM, DTT 1 mM, β-Glycerophosphate 1 mM, Na3VO4 100 μM, Na Cholate 0.3%, in Hepes 40 mM, pH 7.4). After incubation at room temperature for 180 minutes, with gentle agitation, the reaction is stopped by addition of 60 μl of a solution containing 100 μg of neomycin-coated PVT SPA beads in PBS containing ATP 10 mM and EDTA 5 mM. The assay is further incubated at room temperature for 60 minutes with gentle agitation to allow binding of phospholipids to neomycin-SPA beads. After precipitation of the neomycin-coated PVT SPA beads for 5 minutes at 1500×g, radioactive PtdIns(3)P is quantified by scintillation counting in a Wallac MicroBeta™ plate counter.
The values indicated in respect of PI3Kγ refer to the IC50 (μM), i.e. the amount necessary to achieve 50% inhibition of said target. Said values show a considerable potency of the 2-imino-azolinone-vinyl fused-benzene compounds with regard to PI3Kγ.

[3] = tested on: Class I PI3-kinases; conditions: cited from earlier work

Sequence of Human recombinant GST-PI3Kγ (P48736 whole entry): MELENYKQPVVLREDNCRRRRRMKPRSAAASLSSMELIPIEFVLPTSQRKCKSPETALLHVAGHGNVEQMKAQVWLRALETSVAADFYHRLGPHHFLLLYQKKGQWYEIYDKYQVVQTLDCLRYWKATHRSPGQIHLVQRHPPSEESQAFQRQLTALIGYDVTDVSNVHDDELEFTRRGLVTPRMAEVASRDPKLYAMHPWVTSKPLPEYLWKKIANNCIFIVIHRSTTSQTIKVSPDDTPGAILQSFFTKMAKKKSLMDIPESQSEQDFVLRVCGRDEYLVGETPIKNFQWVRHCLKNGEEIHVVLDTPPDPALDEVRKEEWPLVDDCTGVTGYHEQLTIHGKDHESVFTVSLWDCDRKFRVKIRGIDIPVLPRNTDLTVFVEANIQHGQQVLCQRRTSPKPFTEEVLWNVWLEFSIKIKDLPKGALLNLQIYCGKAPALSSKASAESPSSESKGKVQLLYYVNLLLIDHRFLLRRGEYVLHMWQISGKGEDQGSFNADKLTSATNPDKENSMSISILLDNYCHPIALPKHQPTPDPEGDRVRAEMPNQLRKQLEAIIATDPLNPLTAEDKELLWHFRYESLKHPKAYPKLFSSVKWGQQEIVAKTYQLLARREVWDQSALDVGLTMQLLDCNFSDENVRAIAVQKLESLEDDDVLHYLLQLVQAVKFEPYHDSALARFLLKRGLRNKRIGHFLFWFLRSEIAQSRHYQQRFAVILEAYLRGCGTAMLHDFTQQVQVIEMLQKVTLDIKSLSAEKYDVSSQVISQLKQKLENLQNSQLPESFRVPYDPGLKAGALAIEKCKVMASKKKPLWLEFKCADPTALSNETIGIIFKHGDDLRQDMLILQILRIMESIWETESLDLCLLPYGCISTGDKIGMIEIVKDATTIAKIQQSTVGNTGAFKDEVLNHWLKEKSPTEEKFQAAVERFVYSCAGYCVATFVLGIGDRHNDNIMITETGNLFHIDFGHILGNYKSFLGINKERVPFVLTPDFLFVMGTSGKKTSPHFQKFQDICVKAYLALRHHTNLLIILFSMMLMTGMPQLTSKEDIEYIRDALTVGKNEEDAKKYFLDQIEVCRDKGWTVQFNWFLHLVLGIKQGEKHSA

| Compound | IC50 [2] | further results |
| --- | --- | --- |
| O=C1N/C(=N\S(=O)(=O)c2ccccc2)S/C1=C\c1ccc2c(c1)OCO2 [Example 8, N-(5-Benzo[1,3]dioxol-5-ylmethylene-4-oxo-thiazolidin-2-ylidene)-benzenesulfonamide] | – | inhibition at 10 µM [1]: 100% |
| CS(=O)(=O)/N=C1\NC(=O)/C(=C/c2ccc3c(c2)OCO3)S1 [Example 10, N-(5-Benzo[1,3]dioxol-5-ylmethylene-4-oxo-thiazolidin-2-ylidene)-methanesulfonamide] | – | inhibition at 10 µM [1]: 80% |
| COC(=O)c1sccc1S(=O)(=O)N=C1NC(=O)/C(=C/c2ccc3ncccc3c2)S1 [Example 16, 3-(4-Oxo-5-quinolin-6-ylmethylene-thiazolidin-2-ylidenesulfamoyl)-thiophene-2-carboxylic acid methyl ester] | < 1000 nM | – |
| CO/N=C1\NC(=O)/C(=C/c2ccc3c(c2)OCO3)S1 [Example 20, 5-Benzo[1,3]dioxol-5-ylmethylene-thiazolidine-2,4-dione 2-(O-methyl-oxime)] | < 1000 nM | – |
| N#CN=C1NC(=O)/C(=C/c2ccc3nccnc3c2)S1 [Example 21, 4-Oxo-5-quinoxalin-6-ylmethylene-thiazolidin-2-ylidene-cyanamide] | < 1000 nM | – |
| O=C1NC(=NCc2ccccc2)S/C1=C\c1ccc2c(c1)OCO2 [Example 22, 5-Benzo[1,3]dioxol-5-ylmethylene-2-benzylimino-thiazolidin-4-one] | < 1500 nM | – |
| CN=C1NC(=O)/C(=C/c2ccc3ncnc(N(C)C)c3c2)S1 [Example 26, 5-(4-Dimethylamino-quinazolin-6-ylmethylene)-2-methylimino-thiazolidin-4-one] | < 1000 nM | – |
| O=c1cc(N2CCOCC2)oc2c(-c3ccccc3)cccc12 [LY294002] | – | IC50 ([3]; Fruman et al. 1998, read-out: IC50 values against each of these PI3-kinases): 15000 to 20000 nM |
| wortmannin | – | IC50 ([3]; read-out: IC50 values against each of the various Class I PI3-kinases): 1 to 10 nM |
